Here are results for 1 substance from article PMC10877564, “Activity of Gut-Derived Nisin-like Lantibiotics against Human Gut Pathogens and Commensals” (ACS Chemical Biology, 2024).

Positions of bridges follow the written chain, without caps; N, C: chain ends. Non-standard residues stand in square brackets, D forms with d. No end group written: not given here. Abu = CC[C@H](N)C(=O)O; Dhb = C/C=C(\N)C(=O)O; Dha = C=C(N)C(=O)O

Experiment [1] in a line: Liposome permeabilization assay, liposomes without lipid II. Type of experiment: biochemical. The conditions noted are these: 375 nM lantibiotic; DOPC, 50 µM phospholipid; pyranine fluorescence, 30 min; three replicates; Figure S7. As to the method: To further investigate the mechanisms of action of these nisin-like lantibiotics, we performed liposome permeabilization assays using liposomes with or without lipid II (Figure S7).
Liposome Permeabilization Assay
To prepare pyranine encapsulated liposomes, DOPC (25 mg/mL in CHCl3, purchased from Avanti) was deposited into a vial and mixed with lipid II (dissolved in 2:1 CHCl3: MeOH, prepared chemoenzymatically).6 The solvent was removed using a stream of N2 leaving a thin film. Residual solvent was removed by storing it overnight in a vacuum desiccator. The film was rehydrated in buffer (5 mM Tricine, 5 mM MES, 5 mM NaCl, 1 mM pyranine pH = 6.0) and suspended with vortexing. The suspension was subjected to freeze-thaw three times before extrusion through a […] polycarbonate filter (21 passes). Excess pyranine was removed by passing the liposome solution through a Sephadex G-50 column previously equilibrated with buffer (5 mM Tricine, 5 mM MES, 5 mM NaCl, pH = 6.0). The eluted liposome solution containing the highest concentration of encapsulated pyranine (as determined visually with a UV lamp) was immediately placed on ice. Phospholipid concentration was determined by NMR as described previously.7 To measure liposome permeabilization, to a 96 well black polystyrene plate was added buffer (5 mM Tricine, 5 mM MES, 5 mM NaCl, pH = 8.0; 97 µL) and liposome solution (3 µL; 50 µM phospholipid concentration during assay). The wells were allowed to equilibrate for 8 min at room temperature then antibiotic was added. The antibiotic concentration in each well was 375 nM.
Pyranine fluorescence was monitored for 30 min then Triton X-100 was added to a final concentration of 0.1% and pyranine fluorescence was monitored for an additional 5 min. The pyranine fluorescence signal was max-min normalized. […]
Fig. S7 Liposome permeabilization assays of nisin-like lantibiotics. (A) Scheme of liposome […]
low fluorescence. Fluorescence increases upon liposome permeabilization and pH increase . (B) Fraction of liposomes permeabilized by lantibiotics (375 nM). Liposomes were composed of DOPC with or without 0.1 mol% lipid II. Error bars represent the standard of deviation of three […]
(1 picture or pasted object on this page, not shown here)

Experiment [2] relates to panel of Gram-positive human pathogens (VRE, MRSA, MRSE, L. monocytogenes, C. difficile). As to the kind of experiment: MIC assay against the panel of Gram-positive human pathogens. The experiment is classed as cell-based. The following applies: pathogen panel, Figure 3A-E; anaerobic. An excerpt: Next, we set out to test the antimicrobial activities of these purified lantibiotics against a panel of Gram-positive bacteria that are representatives of some of the most prevalent human pathogens: VRE, Methicillin-resistant S. aureus USA300 (MRSA), Methicillin-resistant Staphylococcus epidermidis SK135 (MRSE), Listeria monocytogenes 10403S, and Clostridioides difficile VPI10463. We examined the growth of bacteria in a 96-well plate under a concentration gradient of lantibiotics under anaerobic conditions (Figure S2B).
Elution Buffer (4 M guanidine hydrochloride, 20 mM Tris HCl, pH 7.5 at 25 °C, 100 mM NaCl, 1 M imidazole). Peptides eluted from the Ni resin were concentrated and desalted using 3 kDa Amicon filters (Millipore). For leader peptide removal, the peptide (1:20 trypsin to peptide) was incubated with the trypsin protease in 50 mM Tris-HCl, pH 8 overnight at 37 °C. Lastly, the core peptides were further purified with HPLC using an Agilent 1200 instrument (Agilent) as specified in general methods. About 1.5 mg recombinant peptide was obtained after HPLC purification per […]
Purification of blauticin from Blautia producta SCSK
Stationary anaerobic culture of BPSCSK was inoculated 1:100 to 1 L BHIS. Culture was incubated on a heating plate at 37 °C with 220 rpm stirring for 2 days in an anaerobic chamber. Bacteria were pelleted with 15,000 x g centrifugation for 15 min. The supernatant was acidified with acetic acid to pH 5.5 and filtered through a 0.22 um filter. Filtered supernatant was loaded onto a HiTrap SP HP column using an AKTA Pure FPLC, which was eluted sequentially with 3 CV of distilled water, 200 mM NaCl, 400 mM NaCl, 600 mM NaCl, 800 mM NaCl, and 1 M NaCl. The 800 mM NaCl eluate was concentrated with a 3 kDa Amicon filter, followed by dialyzation with DPBS using a 3 kDa Amicon filter. Purification of blauticin was confirmed by SDS-PAGE, VRE inhibition in vitro assay, and MALDI-TOF MS. […]
For broth cultures, isolates were grown in pre-reduced BHI supplemented with 5 g/L yeast extract (Difco, BD) and 0.1% L-cysteine under anaerobic condition.
Minimal Inhibition Concentration (MIC) assay
All MIC assays were performed under anaerobic condition. Stationary bacterial culture in BHIS (BHI supplemented with 5 g/L yeast extract and 0.1% L-cysteine) were inoculated 1:100 to wells containing 200 µL BHIS in U-bottom 96-well plates. Lantibiotics were dissolved in DPBS, and concentrations were determined by BCA assay (Pierce) according to the manufacturer’s protocol.
Lantibiotic stock solutions were added to wells to reach desired final concentration, with 3-fold serial dilution across rows to create concentration gradients. Bacteria-inoculated wells without lantibiotics served as control. […]

The next experiment deals with F. fissicatena MSK.9.3. Nature of the experiment: MIC assay, anaerobic broth dilution. The following applies: BHIS, 37 °C, 48 h, 3-fold serial dilution. Type of experiment: cell-based, Faecalicatena fissicatena. An excerpt: Antibiotic treatment may result in collateral damage to commensal bacteria in the human microbiome, leading to dysbiosis and susceptibility to various diseases.[44] How lantibiotics impact Gram-positive commensals from the human gut has remained unclear. Therefore, we performed antimicrobial activity tests of these lantibiotics against selected Gram-positive human gut commensals, most of which belong to the Lachnospiraceae family, one of the most abundant bacterial families in the human gut.[27] In general, human gut commensals were more susceptible to the set of investigated lantibiotics compared to pathogens (Figure 3).
Elution Buffer (4 M guanidine hydrochloride, 20 mM Tris HCl, pH 7.5 at 25 °C, 100 mM NaCl, 1 M imidazole). Peptides eluted from the Ni resin were concentrated and desalted using 3 kDa Amicon filters (Millipore). For leader peptide removal, the peptide (1:20 trypsin to peptide) was incubated with the trypsin protease in 50 mM Tris-HCl, pH 8 overnight at 37 °C. Lastly, the core peptides were further purified with HPLC using an Agilent 1200 instrument (Agilent) as specified […]
in general methods. […]
Isolation of human gut commensal bacteria […]
All MIC assays were performed under anaerobic condition. […] Lantibiotics were dissolved in DPBS, and concentrations were determined by BCA assay (Pierce) according to the manufacturer’s protocol. […]
(Broth dilution looks for growth in wells or tubes with falling amounts of substance.)

On to “nisin A (I[Dhb]AI[Dha]LC[Abu]PGCK[Abu]GALMGCNMK[Abu]A[Abu]CHCSIHV[Dha]K; thioether 8-11, 13-19, 23-26, 25-28, 3-7; UniProt P13068 24-57, looked up) [prototypical class I lantibiotic produced by L. lactis, food preservative; commercial nisin A]”, for which, in experiment [1], the “permeabilization of liposomes without lipid II compared to liposomes with lipid II (in words)” value is “decreased permeabilization activities”. Further, the “inhibitory activity against pathogens based on MIC (ranking in words)” value in experiment [2] is “strongest inhibitory activities”. For the same substance, in the experiment with F. fissicatena MSK.9.3, the “nisin A MIC” value stood at 0.0329 µM.
